melting point: 136 to 138 °C
Compound: CCS(=O)(=O)NC(C(=O)NCCc1ccc(OC)c(OC)c1)c1ccc(Cl)cc1 (stereo not shown)

Source: patent US6391918B1, “N-sulphonyl and N-sulphinyl phenylglycinamide” (priority 1998, dated 2002)
